Assay results reported in patent US4963581A, “Naphthopyran derivatives and use thereof” (Takeda Chemical Industries, Ltd., priority 1988, dated 1990).

Legend:
[1] = target: T1, Human placental aromatase (Homo sapiens, UniProt P11511); test: In vitro human placental aromatase inhibiting activity; format: biochemical; details: substrate androstenedione 4 μM, 37° C., 1 hour
T1 construct: the pellet thus obtained was used as a microsome fraction; from tissue; host or cells: human placenta, microsome fraction
T1 sequence (P11511 1-503): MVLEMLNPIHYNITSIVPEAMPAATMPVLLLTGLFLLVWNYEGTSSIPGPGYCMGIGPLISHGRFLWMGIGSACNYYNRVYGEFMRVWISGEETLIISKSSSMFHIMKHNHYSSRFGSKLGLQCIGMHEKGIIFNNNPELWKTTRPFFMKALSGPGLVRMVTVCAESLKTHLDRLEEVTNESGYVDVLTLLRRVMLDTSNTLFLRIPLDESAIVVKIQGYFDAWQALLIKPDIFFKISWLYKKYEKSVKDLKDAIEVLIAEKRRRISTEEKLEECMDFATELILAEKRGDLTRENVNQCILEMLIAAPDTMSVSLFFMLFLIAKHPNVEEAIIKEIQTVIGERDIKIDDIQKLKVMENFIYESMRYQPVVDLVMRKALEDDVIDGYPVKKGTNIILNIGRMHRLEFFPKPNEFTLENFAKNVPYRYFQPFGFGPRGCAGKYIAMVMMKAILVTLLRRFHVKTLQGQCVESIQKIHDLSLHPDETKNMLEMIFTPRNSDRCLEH
Experimental: Preparation of human placental microsome:
The method of F. A. Thompson et al. [Journal of Biological Chemistry, 249, 5364 (1974)]was partly modified. Thus, a placenta was washed with cooled 0.15 M KCl and, after removal of adhering membranes and great blood vessels, minced to sufficiently small pieces by means of scissors. To the minced tissue was added cold 0.02 M phosphate buffer (pH 7.4) containing 0.25 M sucrose in an amount of 1 ml per 1 g of tissue, the mixture was homogenized with a Polytron homogenizer (30 seconds, three times, in ice) and then centrifuged at 800×g for 10 minutes, the supernatant was subjected to centrifugation at 20,000×g for 30 minutes, followed by further centrifugation at 148,000×g for 45 minutes, and the pellet thus obtained was used as a microsome fraction. The microsome obtained was suspended in the same phosphate buffer as mentioned above in a concentration corresponding to 10 g of wet placenta per ml. The suspension was stored at -80° C. and, just prior to use, diluted 5 to 6 times.
Aromatase activity measurement and inhibitory activity:
The method of F. A. Thompson et al. (vide supra) was partly modified as follows:
A reaction solution ([…]) containing 4 μM 4-androstene-3,17-dione, 140,000 dpm, 1,2[^3 H]-androstenedione, 550 μM NADPH, 20 μl of the above microsome and 5 μl of buffer or 5 μl of an inhibitor-containing solution was incubated at 37° C. for 1 hour. In this measurement system, aromatization of androstenedione gives [^3 H]--H2 O. Therefore, this reaction mixture was extracted with 0.5 ml of chloroform for separation, the aqueous layer obtained was treated with 0.25 ml of 5% active carbon for removal of free steriods and then subjected to low speed centrifugation. A scintillator (3 ml) was added to 0.2 ml of the supernatant, and the radioactivity was measured by means of a liquid scintillation counter. The percent inhibition (%) was determined by comparing the result thus obtained with the result for a control sample as obtained without adding any inhibitor. The activity was expressed in terms of IC50 (μg/ml), namely the inhibitor concentration required for 50% inhibition of the enzyme activity at the substrate (androstenedione) concentration of 4 μM.

estrogen synthesis = test: Estrogen synthesis inhibition in rats (PMSG-stimulated); format: in vivo, young SD rats; details: Test I, 4 days, Mean ± SD; for Plasma estradiol-17β level: PMSG control 568.6 ± 69.7
Experimental: Groups of five young SD rats ([…], 19 days old) were used. Test groups were administered subcutaneously with the test compounds suspended in 0.2% gum arabic-containing physiological saline in a dose of 25 mg/kg or 50 mg/kg at 24-hour intervals for consecutive 4 days. Non-test groups (control groups […]) were administered with 0.2 ml of 0.2% gum arabic-containing physiological saline. On the third day after initiation of the test, a single dose of pregnant mare serum gonadotropin (PMSG) was administered subcutaneously in a dose of 10 U/rat to the test groups and to the control group 2, following the administration of the test compounds. […] The plasma samples thus obtained were subjected to plasma estradiol-17B level determination by radioimmunoassay. The uterus and ovaries were excised from each rat and, after removal of superfluous connective tissues, weighed. The results thus obtained are shown in Table 2.4-Hydroxyandrostenedione (4-OHA) was used as a reference compound for the pharmacological effect evaluation.
*P < 0.05, **P < 0.02, ***P < 0.01, ****<0.001 against PMSG group

What does the source list for `COc1cc2cc3c(c(O)c2c(O)c1C1=C(N)C(=O)c2cc4c(c(O)c2C1=O)C(=O)OC(C)C4)C(=O)OC(C)C3` (centres unmarked) [Compound 7]?
IC50 [1]: 50.4 µM; Tissue weight, Ovaries (estrogen synthesis; 25 mg/kg/day s.c.): 31.2 ± 8.5 mg; Tissue weight, Uterus (estrogen synthesis; 25 mg/kg/day s.c.): 94.1 ± 5.5 mg; Plasma estradiol-17β level (estrogen synthesis; 25 mg/kg/day s.c.): 323.4 ± 161.2 pg/mL; Tissue weight, Ovaries (estrogen synthesis; 50 mg/kg/day s.c.): 27.7 ± 2.7 mg; Tissue weight, Uterus (estrogen synthesis; 50 mg/kg/day s.c.): 110.0 ± 14.9 mg; Plasma estradiol-17β level (estrogen synthesis; 50 mg/kg/day s.c.): 206.3 ± 54.8 pg/mL

How did the IC50 [1] turn out when `CCOC1=C(C2=C(OC)C(=O)c3cc4c(c(O)c3C2=O)C(=O)OC(C)C4)C(=O)c2c(cc3c(c2O)C(=O)OC(C)C3)C1=O` (centres unmarked) [Compound 8] was run?
The IC50 was 28.7 µM.

With `CCOC1=C(C2=C(OCC)C(=O)c3cc4c(c(O)c3C2=O)C(=O)OC(C)C4)C(=O)c2c(cc3c(c2O)C(=O)OC(C)C3)C1=O` (centres unmarked) [Compound 9] as the molecule, how does the IC50 [1] read?
The IC50 was 40.7 µM.

Which IC50 [1] does the source give for `CCOC1=C(C2=C(O)C(=O)c3cc4c(c(O)c3C2=O)C(=O)OC(C)C4)C(=O)c2c(cc3c(c2O)C(=O)OC(C)C3)C1=O` (centres unmarked) [Compound 10] here?
The IC50 was 51.2 µM.

`CNC1=C(C2=C(NC)C(=O)c3cc4c(c(O)c3C2=O)C(=O)OC(C)C4)C(=O)c2c(cc3c(c2O)C(=O)OC(C)C3)C1=O` (centres unmarked) [Compound 11] was tested. Which IC50 [1] did it give?
The IC50 was 437 µM.

`CNC1=C(C2=C(NC)C(=O)c3cc4c(c(O)c3C2=O)C(=O)OC(C)C4)C(=O)c2c(cc3c(c2O)C(=O)OC(C)C3)C1=O` (centres unmarked) [Compound 12] was tested. Which IC50 [1] did it give?
The IC50 was 10.5 µM.

`COC1=C(C2=C(OC)C(=O)c3cc4c(c(OC)c3C2=O)C(=O)OC(C)C4)C(=O)c2c(cc3c(c2OC)C(=O)OC(C)C3)C1=O` (centres unmarked) [Compound 13] was tested. Which IC50 [1] did it give?
Its IC50 is 16.9 µM.

For `COC1=CC(=O)c2c(cc3c(c2O)C(=O)OC(C)C3)C1=O` (centres unmarked) [Compound 14], which IC50 [1] is on record?
Its IC50 is 2.78 µM.
